According to US20240261333A1, “NOVEL TARGETS FOR ENHANCING ANTI-TUMOR IMMUNITY” (THE BROAD INSTITUTE, INC., priority 2021, published 2024):

Columns and labels:
[1] = system: A375 cells overexpressing B3GNT2; test: Intra- and extra-cellular poly-LacNAc by tomato lectin staining, flow cytometry; format: cell-based, human; conditions: A375 overexpressing B3GNT2, pretreated with different concentrations of inhibitor
Method: (§1) For glycosylation inhibition, cells were treated with 20 μg/mL Kifunensine (Cayman Chemical 10009437) or 2 mM Benzyl 2-acetamido-2-deoxy-alpha-D-galactopyranoside (BAG; Millipore Sigma B4894-100MG) for 48 h to inhibit N- and O-glycosylation respectively unless otherwise indicated. For MCL1 inhibition, cells were treated with 1-10 μM of S63845 (Selleck Chemicals S8383) or AZD5991 (Selleck Chemicals S8643) for 4 h before incubation with T cells. Both glycosylation and MCL1 inhibitors were maintained at indicated concentrations during co-culture with T cells.
Per condition, 5×10^5 cells were pelleted at 200×g for 5 min and washed once with PBS. Cell were fixed in 4% Formaldehyde in PBS at 4° C. for 10 mins. […] For each sample, 10,000 cells were analyzed on a CytoFLEX Flow Cytometer (Beckman Coulter) and quantified with FlowJo (FlowJo). For each experiment, median fluorescence values for 3 biological replicates were compared to determine statistical significance.

[2] = system: ESO T cells co-cultured with A375 cells; test: IFNγ ELISA in culture media of the T cell cytotoxicity assay; format: cell-based, human; conditions: B3GNT2-overexpressing A375 pretreated with inhibitor, E:T ratio of 3; kifunensine having a stronger effect
Method: Expanded T cells were thawed and maintained in culture media for 8-10 h before incubation with cancer cells. Cancer cells were seeded in 96-well plates and allowed to attach for 3-4 h before T cells were added at the appropriate effector to target cell (E:T) ratio. Paired controls with no T cells added were included for each condition. After 18 h, cancer cells were washed twice with PBS to remove T cells, passaged, and cultured for 2 days. Primary patient-derived cell models were not passaged after T cell co-culture. Viability was measured using CellTiter-Glo (Promega G7571). For each E:T ratio, percent survival was calculated as viability of the cells incubated with T cells divided by viability of the paired control that was not incubated with T cells. […]
To challenge cells with cytokines, cells were incubated with Interferon-γ (IFNγ; Cell Signaling Technology 80385S), FasL (AdipoGen AG-40B-0130-3010), TRAIL (R&D Systems 375-TL-010), or TNF-α (AdipoGen AG-40B-0019-3010) for 24 h. […] Cell viability was measured using CellTiter-Glo (Promega G7571) and protein was harvested for Western blots. […] IFNγ in the cell culture media of the T cell cytotoxic assay was quantified using an ELISA kit (Thermo Fisher Scientific KHC4021). […]

[3] = system: A375 (NY-ESO-1+, HLA-A2+) melanoma cells; test: T cell cytotoxicity assay (CellTiter-Glo), A375 against ESO T cells; format: cell-based, human; conditions: B3GNT2-overexpressing A375 pretreated with inhibitor, E:T ratio of 3, kifunensine having a stronger effect
Method: Expanded T cells were thawed and maintained in culture media for 8-10 h before incubation with cancer cells. Cancer cells were seeded in 96-well plates and allowed to attach for 3-4 h before T cells were added at the appropriate effector to target cell (E:T) ratio. Paired controls with no T cells added were included for each condition. After 18 h, cancer cells were washed twice with PBS to remove T cells, passaged, and cultured for 2 days. Primary patient-derived cell models were not passaged after T cell co-culture. Viability was measured using CellTiter-Glo (Promega G7571). For each E:T ratio, percent survival was calculated as viability of the cells incubated with T cells divided by viability of the paired control that was not incubated with T cells. For example, CD274-overexpressing melanoma cells that were co-cultured with ESO T cells were compared to CD274-overexpressing melanoma cells that were cultured without T cells in parallel. As an alternative cytotoxicity assay, A375 cells stably expressing Gaussia luciferase were co-cultured with ESO T cells. At each time point, 10% of cell culture media was used for the Gaussia luciferase assay (Targeting Systems GAR-2B) to directly measure cytotoxicity.
as §1

[4] = system: A375 cells overexpressing B3GNT2; test: Binding of recombinant T cell proteins to A375 cells, flow cytometry; format: cell-based, human; conditions: B3GNT2-overexpressing A375 treated with inhibitor; CD2, 4-1BB, TREML2, NKG2D
Method: as §1
Per condition, 5×10^5 cells were pelleted at 200×g for 5 min and washed once with PBS. Cell were fixed in 4% Formaldehyde in PBS at 4° C. for 10 mins. Cells were washed twice with PBS and resuspended in PBS with 25 μg/mL recombinant Fc chimera proteins [PVRIG (R&D Systems 9365-PV-050), CD226 (R&D Systems 666-DN-050), NKG2D (R&D 1299-NK-050), TREML2 (R&D Systems 3259-TL-050), CD2 (R&D Systems 1856-CD-050), CD96 (R&D Systems 9360-CD-050), TIGIT (BPS Bioscience 71186), CD27 (BPS Bioscience 71176), or 4-1BB (TNFRSF9; Sino Bio 10041-H03H)], 0.1 μg/mL HLA-A2:NY-ESO-1 Fab (Stewart-Jones et al., 2009), 5 μg/mL Fas antibody (Millipore Sigma 05-201), 25 μg/mL TNFRSF10B antibody (Novus Biologicals NB100-56618, 1:200), or Dylight 649 labeled Tomato Lectin (Vector Laboratories DL-1178, 1:100). Cells were incubated at 4° C. for 1 h. Cells were washed twice with PBS and resuspended in PBS with the appropriate secondary antibody [IgG Fc PE (Thermo Fisher Scientific 12-4998-82, 1:50), His Tag Alexa Fluor 647 (Thermo Fisher Scientific MA121315A647), mouse Alexa Fluor 568 (Thermo Fisher Scientific A-11031), or rabbit Alexa Fluor 647 (Thermo Fisher Scientific A-21244)]. Cells stained with Tomato Lectin were not incubated with additional secondary antibodies. […] For each sample, 10,000 cells were analyzed on a CytoFLEX Flow Cytometer (Beckman Coulter) and quantified with FlowJo (FlowJo). For each experiment, median fluorescence values for 3 biological replicates were compared to determine statistical significance.

N-glycan synthesis = conditions: cited from earlier work

| Molecule | poly-LacNAc measured by tomato lectin staining [1] | T cell IFNγ secretion [2] | Cell survival against T cell cytotoxicity [3] | Binding of recombinant T cell proteins to A375 cells [4] | Inhibition of N-glycan synthesis (N-glycan synthesis) |
| --- | --- | --- | --- | --- | --- |
| CC(=O)N[C@H]1[C@@H](OCc2ccccc2)O[C@H](CO)[C@H](O)[C@@H]1O [BAG, benzyl-2-acetamido-2-deoxy-α-D-galactopyranoside] | reduced poly-LacNAc added by B3GNT2 in a dosage-dependent manner | increased T cell IFNγ secretion | reduced A375 survival | rescued the reduction in T cell protein binding |  |
| tunicamycin |  |  |  |  | potent inhibitor of N-glycan synthesis |
